ChEMBL document CHEMBL1201862, “PubChem BioAssay data set” (2004)
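Dose response: 5 concentrations. Exposure: 48 h. Format: 96-well plates. Endpoint: linear interpolation; highest concentration if not reached. Here, GI50 denotes the concentration required for 50% inhibition of growth.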 Active and inactive are the calls of the source. Cut-off read from the data, not from the text of the source: active = GI50 up to about 1.1 µM and inactive = higher.

Columns and labels:
Assay in all cases: NCI tumour cell line growth inhibition, 48 h
786-0 = tested on: 786-0
A498 = tested on: A498
A549 = tested on: A549
ACHN = tested on: ACHN
BT-549 = tested on: BT-549
CAKI-1 = tested on: CAKI-1
CCRF-CEM = tested on: CCRF-CEM
COLO 205 = tested on: COLO 205
DU-145 = tested on: DU-145
EKVX = tested on: EKVX
HCC 2998 = tested on: HCC 2998
HCT-116 = tested on: HCT-116
HCT-15 = tested on: HCT-15
HOP-62 = tested on: HOP-62
HT-29 = tested on: HT-29
Hs-578T = tested on: Hs-578T
IGROV-1 = tested on: IGROV-1
K562 = tested on: K562
KM12 = tested on: KM12
LOX IMVI = tested on: LOX IMVI
M14 = tested on: M14
MCF7 = tested on: MCF7
MDA-MB-231 = tested on: MDA-MB-231
MDA-MB-435 = tested on: MDA-MB-435
MDA-N = tested on: MDA-N
MOLT-4 = tested on: MOLT-4
Malme-3M = tested on: Malme-3M
NCI-H23 = tested on: NCI-H23
NCI-H460 = tested on: NCI-H460
NCI-H522 = tested on: NCI-H522
NCI/ADR-RES = tested on: NCI/ADR-RES
OVCAR-3 = tested on: OVCAR-3
OVCAR-4 = tested on: OVCAR-4
OVCAR-5 = tested on: OVCAR-5
OVCAR-8 = tested on: OVCAR-8
PC-3 = tested on: PC-3
RPMI-8226 = tested on: RPMI-8226
RXF 393 = tested on: RXF 393
SF-268 = tested on: SF-268
SF-295 = tested on: SF-295
SF-539 = tested on: SF-539
SK-MEL-28 = tested on: SK-MEL-28
SK-MEL-2 = tested on: SK-MEL-2
SK-MEL-5 = tested on: SK-MEL-5
SK-OV-3 = tested on: SK-OV-3
SN12C = tested on: SN12C
SNB-19 = tested on: SNB-19
SR = tested on: SR
SW-620 = tested on: SW-620
T47D = tested on: T47D
TK-10 = tested on: TK-10
U-251 = tested on: U-251
UACC-257 = tested on: UACC-257
UACC-62 = tested on: UACC-62
UO-31 = tested on: UO-31
HL-60 = tested on: HL-60
HOP-92 = tested on: HOP-92
NCI-H226 = tested on: NCI-H226
SNB-75 = tested on: SNB-75

How did the GI50 (786-0) turn out when Cc1ccc(S(=O)(=O)NCCN(CCNS(=O)(=O)c2ccc(C)cc2)S(=O)(=O)c2ccc(C)cc2)cc1 was run?
Its GI50 is 43.7 µM (inactive).

What about the GI50 (A498) of the same compound?
Its GI50 is > 100 µM (inactive).

What about the GI50 (A549) of the same compound?
Its GI50 is 25.7 µM (inactive).

What about the GI50 (ACHN) of the same compound?
The GI50 was 60 µM (inactive).

What about the GI50 (BT-549) of the same compound?
Its GI50 is > 100 µM (inactive).

And the GI50 (CAKI-1)?
The GI50 was > 100 µM (inactive).

And the GI50 (CCRF-CEM)?
Its GI50 is > 100 µM (inactive).

What about the GI50 (COLO 205) of the same compound?
The GI50 was > 100 µM (inactive).

And the GI50 (DU-145)?
Its GI50 is > 100 µM (inactive).

What about the GI50 (EKVX) of the same compound?
Its GI50 is 85.1 µM (inactive).

And the GI50 (HCC 2998)?
Its GI50 is > 100 µM (inactive).

What about the GI50 (HCT-116) of the same compound?
The GI50 was > 100 µM (inactive).

And the GI50 (HCT-15)?
The GI50 was > 100 µM.

And the GI50 (HOP-62)?
Its GI50 is 47.4 µM (inactive).

What about the GI50 (HT-29) of the same compound?
The GI50 was > 100 µM (inactive).

And the GI50 (Hs-578T)?
The GI50 was 22.9 µM (inactive).

What about the GI50 (IGROV-1) of the same compound?
The GI50 was 84.1 µM (inactive).

And the GI50 (K562)?
Its GI50 is > 100 µM (inactive).

What about the GI50 (KM12) of the same compound?
The GI50 was > 100 µM (inactive).

What about the GI50 (LOX IMVI) of the same compound?
The GI50 was 40.1 µM (inactive).

And the GI50 (M14)?
Its GI50 is > 100 µM (inactive).

What about the GI50 (MCF7) of the same compound?
Its GI50 is 81.7 µM (inactive).

What about the GI50 (MDA-MB-231) of the same compound?
Its GI50 is > 100 µM (inactive).

And the GI50 (MDA-MB-435)?
The GI50 was 30.8 µM (inactive).

And the GI50 (MDA-N)?
The GI50 was > 100 µM (inactive).

What about the GI50 (MOLT-4) of the same compound?
Its GI50 is > 100 µM (inactive).

What about the GI50 (Malme-3M) of the same compound?
Its GI50 is 15.4 µM (inactive).

What about the GI50 (NCI-H23) of the same compound?
The GI50 was > 100 µM (inactive).

What about the GI50 (NCI-H460) of the same compound?
Its GI50 is > 100 µM (inactive).

And the GI50 (NCI-H522)?
Its GI50 is > 100 µM (inactive).

What about the GI50 (NCI/ADR-RES) of the same compound?
Its GI50 is > 100 µM (inactive).

What about the GI50 (OVCAR-3) of the same compound?
The GI50 was > 100 µM (inactive).

And the GI50 (OVCAR-4)?
Its GI50 is 6.53 µM (inactive).

What about the GI50 (OVCAR-5) of the same compound?
The GI50 was > 100 µM (inactive).

What about the GI50 (OVCAR-8) of the same compound?
Its GI50 is 94.6 µM (inactive).

What about the GI50 (PC-3) of the same compound?
Its GI50 is > 100 µM (inactive).

And the GI50 (RPMI-8226)?
The GI50 was 56.2 µM (inactive).

And the GI50 (RXF 393)?
The GI50 was 87.9 µM (inactive).

And the GI50 (SF-268)?
The GI50 was 47.4 µM (inactive).

And the GI50 (SF-295)?
The GI50 was > 100 µM (inactive).

What about the GI50 (SF-539) of the same compound?
The GI50 was 42.5 µM (inactive).

What about the GI50 (SK-MEL-28) of the same compound?
The GI50 was 43.8 µM (inactive).

What about the GI50 (SK-MEL-2) of the same compound?
The GI50 was > 100 µM (inactive).

What about the GI50 (SK-MEL-5) of the same compound?
The GI50 was 43.9 µM (inactive).

What about the GI50 (SK-OV-3) of the same compound?
Its GI50 is 43.1 µM (inactive).

What about the GI50 (SN12C) of the same compound?
The GI50 was > 100 µM (inactive).

What about the GI50 (SNB-19) of the same compound?
The GI50 was 46.7 µM (inactive).

What about the GI50 (SR) of the same compound?
The GI50 was > 100 µM (inactive).

What about the GI50 (SW-620) of the same compound?
Its GI50 is > 100 µM (inactive).

What about the GI50 (T47D) of the same compound?
The GI50 was > 100 µM (inactive).

What about the GI50 (TK-10) of the same compound?
Its GI50 is 41.4 µM (inactive).

And the GI50 (U-251)?
The GI50 was 28.9 µM (inactive).

What about the GI50 (UACC-257) of the same compound?
The GI50 was 29.1 µM (inactive).

What about the GI50 (UACC-62) of the same compound?
Its GI50 is 79.1 µM (inactive).

And the GI50 (UO-31)?
Its GI50 is > 100 µM (inactive).

c1ccc2c3c(c(N4CCNCC4)nc2c1)CCCC3 was tested. Which GI50 (786-0) did it give?
Its GI50 is 14.4 µM (inactive).

And the GI50 (A498)?
The GI50 was 14.5 µM (inactive).

What about the GI50 (A549) of the same compound?
Its GI50 is 15.1 µM (inactive).

And the GI50 (ACHN)?
The GI50 was 14.5 µM (inactive).

What about the GI50 (BT-549) of the same compound?
Its GI50 is 13.9 µM (inactive).

What about the GI50 (CAKI-1) of the same compound?
Its GI50 is 9.25 µM (inactive).

What about the GI50 (CCRF-CEM) of the same compound?
Its GI50 is 9.98 µM (inactive).

What about the GI50 (COLO 205) of the same compound?
Its GI50 is 5.75 µM (inactive).

What about the GI50 (DU-145) of the same compound?
The GI50 was 15.3 µM (inactive).

And the GI50 (EKVX)?
Its GI50 is 7.53 µM (inactive).

And the GI50 (HCC 2998)?
The GI50 was 1.95 µM (inactive).

And the GI50 (HCT-116)?
The GI50 was 14.1 µM (inactive).

What about the GI50 (HCT-15) of the same compound?
Its GI50 is 15.8 µM.

And the GI50 (HL-60)?
The GI50 was 8.93 µM (inactive).

What about the GI50 (HOP-62) of the same compound?
Its GI50 is 17.7 µM (inactive).

What about the GI50 (HOP-92) of the same compound?
The GI50 was 14.2 µM (inactive).

What about the GI50 (HT-29) of the same compound?
Its GI50 is 14.2 µM (inactive).

What about the GI50 (Hs-578T) of the same compound?
Its GI50 is 27.7 µM (inactive).

And the GI50 (IGROV-1)?
Its GI50 is 12.4 µM (inactive).

What about the GI50 (K562) of the same compound?
Its GI50 is 5.5 µM (inactive).

What about the GI50 (KM12) of the same compound?
The GI50 was 17.2 µM (inactive).

And the GI50 (LOX IMVI)?
The GI50 was 14.2 µM (inactive).

And the GI50 (M14)?
The GI50 was 5.26 µM (inactive).

What about the GI50 (MCF7) of the same compound?
Its GI50 is 14.4 µM (inactive).

And the GI50 (MDA-MB-231)?
Its GI50 is 14.3 µM (inactive).

And the GI50 (MDA-MB-435)?
The GI50 was 11.4 µM (inactive).

What about the GI50 (MDA-N) of the same compound?
Its GI50 is 13.9 µM (inactive).

And the GI50 (MOLT-4)?
Its GI50 is 16.1 µM (inactive).

What about the GI50 (Malme-3M) of the same compound?
Its GI50 is 19.9 µM (inactive).

And the GI50 (NCI-H226)?
Its GI50 is 14.8 µM (inactive).

And the GI50 (NCI-H23)?
The GI50 was 14.6 µM (inactive).

What about the GI50 (NCI-H460) of the same compound?
Its GI50 is 15.1 µM (inactive).

And the GI50 (NCI-H522)?
Its GI50 is 15.3 µM (inactive).

And the GI50 (NCI/ADR-RES)?
The GI50 was 14.1 µM (inactive).

What about the GI50 (OVCAR-3) of the same compound?
The GI50 was 15.5 µM (inactive).

And the GI50 (OVCAR-4)?
Its GI50 is 16 µM (inactive).

And the GI50 (OVCAR-5)?
Its GI50 is 13.7 µM (inactive).

What about the GI50 (OVCAR-8) of the same compound?
Its GI50 is 15.5 µM (inactive).

And the GI50 (PC-3)?
The GI50 was 13 µM (inactive).

And the GI50 (RXF 393)?
The GI50 was 10.4 µM (inactive).

What about the GI50 (SF-268) of the same compound?
Its GI50 is 15.2 µM (inactive).

And the GI50 (SF-295)?
Its GI50 is 21.6 µM (inactive).

What about the GI50 (SF-539) of the same compound?
Its GI50 is 10.7 µM (inactive).

What about the GI50 (SK-MEL-28) of the same compound?
Its GI50 is 16.1 µM (inactive).

And the GI50 (SK-MEL-2)?
Its GI50 is 12.6 µM (inactive).

What about the GI50 (SK-MEL-5) of the same compound?
Its GI50 is 12 µM (inactive).

What about the GI50 (SK-OV-3) of the same compound?
The GI50 was 18.8 µM (inactive).

And the GI50 (SN12C)?
The GI50 was 16.3 µM (inactive).

What about the GI50 (SNB-19) of the same compound?
The GI50 was 14.6 µM (inactive).

What about the GI50 (SNB-75) of the same compound?
The GI50 was 13.9 µM (inactive).

What about the GI50 (SR) of the same compound?
The GI50 was 13.2 µM (inactive).

And the GI50 (SW-620)?
The GI50 was 17 µM (inactive).

And the GI50 (T47D)?
The GI50 was 13.5 µM (inactive).

And the GI50 (TK-10)?
The GI50 was 13.7 µM (inactive).

And the GI50 (U-251)?
The GI50 was 13.4 µM (inactive).

What about the GI50 (UACC-257) of the same compound?
The GI50 was 8.15 µM (inactive).

What about the GI50 (UACC-62) of the same compound?
The GI50 was 16.7 µM (inactive).

And the GI50 (UO-31)?
Its GI50 is 2.9 µM (inactive).
